Tested on: HBV
Test: HBV replication inhibition assay (BDNA assay) in HepG2.2.15 cells
Format: cell-based
Settings: Hepatitis B virus, HepG2.2.15, 144 h, 6 days treatment, encapsidated HBV DNA in supernatant by branched DNA QuantiGene assay
Text: HBV replication inhibition by the compounds of this invention could be determined in cells infected or transfected with HBV, or cells with stably integrated HBV, such as HepG2.2.15 cells (Sells et al. 1987). In this example, HepG2.2.15 cells were maintained in cell culture medium containing 10% fetal bovine serum (FBS), Geneticin, L-glutamine, penicillin and streptomycin. HepG2.2.15 cells could be seeded in 96-well plates at a density of 40,000 cells/well and be treated with serially diluted compounds at a final DMSO concentration of 0.5% either alone or in combination by adding drugs in a checker box format. Cells were incubated with compounds for three days, after which medium was removed and fresh medium containing compounds was added to cells and incubated for another three days. At day 6, supernatant was removed and treated with DNase at 37° C. for 60 minutes, followed by enzyme inactivation at 75° C. for 15 minutes. Encapsidated HBV DNA was released from the virions and covalently linked HBV polymerase by incubating in lysis buffer (Affymetrix QS0010) containing 2.5 μg proteinase K at 50° C. for 40 minutes. HBV DNA was denatured by addition of 0.2 M NaOH and detected using a branched DNA (BDNA) QuantiGene assay kit according to manufacturer recommendation (Affymetrix). HBV DNA levels could also be quantified using qPCR, based on amplification of encapsidated HBV DNA extraction with QuickExtraction Solution (Epicentre Biotechnologies) and amplification of HBV DNA using HBV specific PCR probes that can hybridize to HBV DNA and a fluorescently labeled probe for quantitation. In addition, cell viability of HepG2.2.15 cells incubated with test compounds alone or in combination was determined by using CellTitre-Glo reagent according to the manufacturer protocol (Promega). The mean background signal from wells containing only culture medium was subtracted from all other samples, and percent inhibition at each compound concentration was calculated by normalizing to signals from HepG2.2.15 cells treated with 0.5% DMSO using equation E1. % inhibition=(DMSOave−Xi)/DMSOave×100% E1: where DMSOave is the mean signal calculated from the wells that were treated with DMSO control (0% inhibition control) and Xi is the signal measured from the individual wells. EC50 values, effective concentrations that achieved 50% inhibitory effect, were determined by non-linear fitting using Graphpad Prism software (San Diego, Calif.) and equation E2 Y=Y min+(Y max−Y min)/(1+10(Log EC50−X)×HillSlope) E2: […]
where Y represents percent inhibition values and X represents the logarithm of compound concentrations.
Selected compounds of the invention were assayed in the HBV replication assay (BDNA assay), as described above and a representative group of these active compounds is shown in Table 3. […] In Table 3, “A” represents 0.01<EC50<0.10; “B” represents 0.10≤EC50<0.50; and “C” represents 0.50≤EC50<1.0; (‘+’ indicates >50% activity at 10 μM).

| Structure (SMILES) | EC50 [nM] |
| --- | --- |
| C=C(C)c1n[nH]c2c1CN(C(=O)Nc1cccc(C)c1)CC2 [Compound 549, 3-isopropenyl-N-(m-tolyl)-1,4,6,7-tetrahydropyrazolo[4,3-c]pyridine-5-carboxamide] | 100 to 500 |
| O=C(Nc1cccc(Cl)c1)N1CCc2[nH]nc(C3CCC3)c2C1 [Compound 554, N-(3-chlorophenyl)-3-cyclobutyl-1,4,6,7-tetrahydropyrazolo[4,3-c]pyridine-5-carboxamide] | 10 to 100 |
| CCC(C)(C)c1n[nH]c2c1CN(C(=O)Nc1cccc(Cl)c1)CC2 [Compound 604, N-(3-chlorophenyl)-3-(1,1-dimethylpropyl)-1,4,6,7-tetrahydropyrazolo [4,3-c]pyridine-5-carboxamide] | 100 to 500 |
| CCCC(F)(F)c1n[nH]c2c1CN(C(=O)Nc1cccc(Cl)c1)CC2 [Compound 642, N-(3-chlorophenyl)-3-(1,1-difluorobutyl)-1,4,6,7-tetrahydropyrazolo[4,3-c]pyridine-5-carboxamide] | 10 to 100 |
| CCCc1n[nH]c2c1CN(C(=O)Nc1cccc(Cl)c1)CC2 [Compound 644, N-(3-chlorophenyl)-3-propyl-1,4,6,7-tetrahydropyrazolo[4,3-c]pyridine-5-carboxamide] | 100 to 500 |
| O=C(Nc1ccnc(Cl)c1F)N1CCc2[nH]nc(C3CCC3)c2C1 [Compound 660] | 100 to 500 |
| Cc1cccc(NC(=O)N2CCc3[nH]nc(C4CCC4)c3C2)c1 [Compound 661] | 100 to 500 |
| O=C(Nc1cccc(Br)c1F)N1CCc2[nH]nc(C3CCC3)c2C1 [Compound 662] | 10 to 100 |
| O=C(Nc1cccc(Br)c1)N1CCc2[nH]nc(C3CCC3)c2C1 [Compound 663] | 10 to 100 |
| O=C(Nc1ccnc(Br)c1F)N1CCc2[nH]nc(C3CCC3)c2C1 [Compound 664] | 100 to 500 |
| O=C(Nc1ccc(F)c(Cl)c1)N1CCc2[nH]nc(C3CCC3)c2C1 [Compound 665] | 10 to 100 |
| Cc1cc(NC(=O)N2CCc3[nH]nc(C4CCC4)c3C2)ccc1F [Compound 666] | 10 to 100 |
| O=C(Nc1ccc(F)c(Br)c1)N1CCc2[nH]nc(C3CCC3)c2C1 [Compound 667] | 10 to 100 |
| N#Cc1cc(NC(=O)N2CCc3[nH]nc(C4CCC4)c3C2)ccc1F [Compound 668] | 10 to 100 |
| O=C(Nc1ccc(F)c(F)c1)N1CCc2[nH]nc(C3CCC3)c2C1 [Compound 669] | 100 to 500 |
| O=C(Nc1cccc(Cl)c1)N1CCc2[nH]nc(C3CC=CC3)c2C1 [Compound 693, N-(3-chlorophenyl)-3-cyclopent-3-en-1-yl-1,4,6,7-tetrahydropyrazolo[4,3-c]pyridine-5-carboxamide] | 10 to 100 |
| CC1(c2n[nH]c3c2CN(C(=O)Nc2cccc(Cl)c2)CC3)CCC1 [Compound 694, N-(3-chlorophenyl)-3-(1-methylcyclobutyl)-1,4,6,7-tetrahydropyrazolo[4,3-c]pyridine-5-carboxamide] | 10 to 100 |

| Structure (SMILES) | EC50 [nM] |
| --- | --- |
| CCC(F)(F)c1n[nH]c2c1CN(C(=O)Nc1cccc(Cl)c1)CC2 [Compound 696, N-(3-chlorophenyl)-3-(1,1-difluoropropyl)-1,4,6,7-tetra hydropyrazolo[4,3-c]pyridine-5-carboxamide] | 100 to 500 |
| O=C(Nc1cccc(Cl)c1)N1CCc2[nH]nc(C3(C(F)(F)F)CC3)c2C1 [Compound 700, N-(3-chlorophenyl)-3-[1-(trifluoromethyl)cyclopropyl]-1,4,6,7-tetrahydropyrazolo[4,3-c]pyridine-5-carboxamide] | 100 to 500 |
| O=C(Nc1cccc(Cl)c1)N1CCc2[nH]nc(C3CCC(O)C3)c2C1 (stereo not drawn) [Compound 742, N-(3-chlorophenyl)-3-(3-hydroxycyclopentyl)-1,4,6,7-tetrahydropyrazolo[4,3-c] pyridine-5-carboxamide] | 100 to 500 |
| O=C(Nc1cccc(Cl)c1)N1CCc2[nH]nc(C3=CC(F)CC3)c2C1 (stereo not drawn) [Compound 744, N-(3-chlorophenyl)-3-(3-fluorocyclopenten-1-yl)-1,4,6,7-tetrahydropyrazolo[4,3-c]pyridine-5-carboxamide] | 10 to 100 |
| O=C(Nc1ccnc(Cl)c1F)N1CCc2[nH]nc(C34CCCC3C4)c2C1 (stereo not drawn) [Compound 782] | 10 to 100 |
| Cc1cccc(NC(=O)N2CCc3[nH]nc(C45CCCC4C5)c3C2)c1 (stereo not drawn) [Compound 783] | 10 to 100 |
| O=C(Nc1cccc(Br)c1F)N1CCc2[nH]nc(C34CCCC3C4)c2C1 (stereo not drawn) [Compound 784] | 10 to 100 |
| O=C(Nc1cccc(Br)c1)N1CCc2[nH]nc(C34CCCC3C4)c2C1 (stereo not drawn) [Compound 785] | 10 to 100 |
| N#Cc1cccc(NC(=O)N2CCc3[nH]nc(C45CCCC4C5)c3C2)c1F (stereo not drawn) [Compound 786] | 10 to 100 |
| O=C(Nc1ccc(F)c(Cl)c1)N1CCc2[nH]nc(C34CCCC3C4)c2C1 (stereo not drawn) [Compound 787] | 10 to 100 |
| Cc1cc(NC(=O)N2CCc3[nH]nc(C45CCCC4C5)c3C2)ccc1F (stereo not drawn) [Compound 788] | 10 to 100 |
| O=C(Nc1ccc(F)c(Br)c1)N1CCc2[nH]nc(C34CCCC3C4)c2C1 (stereo not drawn) [Compound 789] | 10 to 100 |
| N#Cc1cc(NC(=O)N2CCc3[nH]nc(C45CCCC4C5)c3C2)ccc1F (stereo not drawn) [Compound 790] | 10 to 100 |
| O=C(Nc1ccnc(Br)c1F)N1CCc2[nH]nc(C34CCCC3C4)c2C1 (stereo not drawn) [Compound 791] | 10 to 100 |
| O=C(Nc1ccc(F)c(F)c1)N1CCc2[nH]nc(C34CCCC3C4)c2C1 (stereo not drawn) [Compound 792] | 100 to 500 |
| O=C(Nc1cccc(Cl)c1)N1CCc2[nH]nc(C3CCCO3)c2C1 (stereo not drawn) [Compound 861, N-(3-chlorophenyl)-3-tetrahydrofuran-2-yl-1,4,6,7-tetrahydropyrazolo[4,3-c]pyridine-5-carboxamide] | 10 to 100 |
